Measured values taken from patent publication US10639284B2, “Immunomodulator compounds” (CHEMOCENTRYX, INC., priority 2016, dated 2020).
Like-named read-outs stand apart in the source and are kept apart here.

Biological target: human PD-L1 / Human PD-1 (Homo sapiens (Human), UniProt Q9NZQ7)
Assay: Enzyme-Linked Immunosorbent Assay (ELISA), PD-1/PD-L1 binding
Settings: plate-coated human PD-L1, biotinylated human PD-1, read-out: ELISA IC50
Method in brief: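 Human PD-L1 coated at 1 μg/mL overnight at 4° C; samples diluted 1:5 and incubated with human PD-1 and biotin (0.3 μg/mL) for 1 h at 37° C. Bound PD-1 detected with streptavidin-HRP and TMB (20 min, 37° C), acid-stopped, absorbance at 450 nm.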

Sequence of human PD-L1 / Human PD-1 (Q9NZQ7 19-239): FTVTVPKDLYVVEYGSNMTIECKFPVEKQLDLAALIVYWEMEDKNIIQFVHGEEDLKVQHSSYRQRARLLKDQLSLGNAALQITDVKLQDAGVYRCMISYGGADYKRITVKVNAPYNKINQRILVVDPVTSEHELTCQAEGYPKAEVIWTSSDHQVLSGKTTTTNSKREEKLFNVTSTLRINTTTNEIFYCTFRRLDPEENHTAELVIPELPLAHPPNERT

IC50 (Table 2) [nM] | IC50 (Table 3) [nM] | Structure (SMILES)
– | < 100 | CS(=O)(=O)c1cc(COc2cc(O[C@H]3CCc4c(-c5ccccc5F)cccc43)c(Cl)cc2CN[C@@H](CO)C(=O)O)cc(S(C)(=O)=O)c1 [Example 3.001]
– | < 100 | N#Cc1cc(C#N)cc(COc2cc(O[C@H]3CCc4c(-c5ccc6c(c5)OCCO6)cccc43)c(Cl)cc2CN[C@@H](CO)C(=O)O)c1 [Example 3.002]
– | < 100 | N#Cc1cc(C#N)cc(COc2cc(O[C@H]3CCc4c(-c5ccccc5F)cccc43)c(Cl)cc2CN[C@@H](CO)C(=O)O)c1 [Example 3.004]
– | < 100 | C[C@@](CO)(NCc1cc(Cl)c(O[C@H]2CCc3c(-c4ccc5c(c4F)OCCO5)cccc32)cc1OCc1cc(C#N)cc(C#N)c1)C(=O)O [Example 3.005]
– | < 100 | N#Cc1cc(C#N)cc(COc2cc(O[C@H]3CCc4c(-c5ccc6c(c5F)OCCO6)cccc43)c(Cl)cc2CN[C@@H](CO)C(=O)O)c1 [Example 3.006]
– | < 100 | N#Cc1cncc(COc2cc(O[C@H]3CCc4c(-c5cc6c(cc5F)OCCO6)cccc43)c(Cl)cc2CN[C@H](O)CO)c1 [Example 3.007]
– | < 100 | N#Cc1cncc(COc2cc(O[C@H]3CCc4c(-c5ccc6c(c5F)OCCO6)cccc43)c(Cl)cc2CN[C@@H](CO)C(=O)O)c1 [Example 3.008]
– | < 100 | C[C@@](CO)(NCc1cc(Cl)c(O[C@H]2CCc3c(-c4ccc5c(c4F)OCCO5)cccc32)cc1OCc1cncc(C#N)c1)C(=O)O [Example 3.009]
– | < 100 | CS(=O)(=O)c1cncc(COc2cc(O[C@H]3CCc4c(-c5ccc6c(c5F)OCCO6)cccc43)c(Cl)cc2CN[C@@H](CO)C(=O)O)c1 [Example 3.010]
– | < 100 | N#Cc1cncc(COc2cc(O[C@H]3CCc4c(-c5cc6c(c(F)c5F)OCCO6)cccc43)c(Cl)cc2CN[C@@H](CO)C(=O)O)c1 [Example 3.011]
– | 500 to 20000 | O=C(O)[C@H](CO)NCc1cc(Cl)c(O[C@H]2CCc3c(-c4ccc5c(c4F)OCCO5)cccc32)cc1OCc1cc(F)cc(F)c1 [Example 3.012]
– | 500 to 20000 | O=C(O)[C@H](CO)NCc1cc(Cl)c(O[C@H]2CCc3c(-c4ccc5c(c4F)OCCO5)cccc32)cc1OCc1cc(F)cc(Cl)c1 [Example 3.013]
– | 500 to 20000 | O=C(O)[C@H](CO)NCc1cc(Cl)c(O[C@H]2CCc3c(-c4ccc5c(c4F)OCCO5)cccc32)cc1OCc1cc(Cl)cc(Cl)c1 [Example 3.014]
– | < 100 | N#Cc1cc(Cl)cc(COc2cc(O[C@H]3CCc4c(-c5ccc6c(c5F)OCCO6)cccc43)c(Cl)cc2CN[C@@H](CO)C(=O)O)c1 [Example 3.015]
– | < 100 | COc1cccc(-c2cccc3c2CC[C@@H]3Oc2cc(OCc3cc(C#N)cc(C#N)c3)c(CN[C@@H](CO)C(=O)O)cc2Cl)c1Cl [Example 3.016]
– | < 100 | N#Cc1cncc(COc2cc(O[C@H]3CCc4c(-c5cc(F)c6c(c5)OCCO6)cccc43)c(Cl)cc2CN[C@@H](CO)C(=O)O)c1 [Example 3.017]
– | < 100 | N#Cc1cncc(COc2cc(O[C@H]3CCc4c(-c5ccccc5F)cccc43)c(Cl)cc2CN[C@@H]2CCC[C@H]2O)c1 [Example 3.018]
– | < 100 | N#Cc1cncc(COc2cc(O[C@H]3CCc4c(-c5ccccc5F)cccc43)c(Cl)cc2CN[C@H]2CCC[C@@H]2O)c1 [Example 3.019]
– | < 100 | N#Cc1cncc(COc2cc(O[C@H]3CCc4c(-c5ccccc5F)cccc43)c(Cl)cc2CN[C@H]2CCCC[C@@H]2O)c1 [Example 3.021]
– | < 100 | N#Cc1cc(C#N)cc(COc2cc(O[C@H]3CCc4c(-c5ccccc5)cccc43)c(Cl)cc2CN[C@@H](CO)C(=O)O)c1 [Example 3.022]
– | 100 to 500 | NCCCC[C@H](NCc1cc(Cl)c(O[C@H]2CCc3c(-c4ccccc4F)cccc32)cc1OCc1cncc(C(=O)O)c1)C(=O)O [Example 3.023]
– | < 100 | N#Cc1cncc(COc2cc(O[C@H]3CCc4c(-c5ccccc5F)cccc43)c(Cl)cc2CN[C@@H](CO)C(=O)O)c1 [Example 3.024]
– | < 100 | Cc1cncc(COc2cc(O[C@H]3CCc4c(-c5ccc6c(c5F)OCCO6)cccc43)c(Cl)cc2CN[C@@H](CO)C(=O)O)c1 [Example 3.025]
– | < 100 | N#Cc1ccnc(COc2cc(O[C@H]3CCc4c(-c5ccc6c(c5F)OCCO6)cccc43)c(Cl)cc2CN[C@@H](CO)C(=O)O)c1 [Example 3.026]
– | < 100 | O=C(O)[C@H](CO)NCc1cc(Cl)c(O[C@H]2CCc3c(-c4ccc5c(c4F)OCCO5)cccc32)cc1OCc1cncc(Cl)c1 [Example 3.027]
– | 500 to 20000 | N#Cc1cncc(COc2cc(O[C@H]3CCc4c(Br)cccc43)c(Cl)cc2CN[C@@H](CO)C(=O)O)c1 [Example 3.028]
– | 100 to 500 | O=C(O)c1cncc(COc2cc(O[C@H]3CCc4c(-c5ccccc5F)cccc43)c(Cl)cc2CN[C@@H](CO)C(=O)O)c1 [Example 3.029]

More lines, now with the values behind:

Structure (SMILES) | IC50 (Table 2) [nM] | IC50 (Table 3) [nM]
N#Cc1cncc(COc2cc(O[C@H]3CCc4c(-c5ccccc5F)cccc43)c(Cl)cc2CNC2(C(=O)O)CCCC2)c1 [Example 2.165] | < 100 | –
N#Cc1cncc(COc2cc(O[C@H]3CCc4c(-c5ccccc5F)cccc43)c(Cl)cc2CNC(CO)C(=O)NO)c1 (stereo partly drawn) [Example 2.166] | 100 to 500 | –
N#Cc1cncc(COc2cc(O[C@H]3CCc4c(-c5ccccc5F)cccc43)c(Cl)cc2CN[C@@H](CO)C(N)=O)c1 [Example 2.167] | 100 to 500 | –
C[C@H](NCc1cc(Cl)c(O[C@H]2CCc3c(-c4ccccc4F)cccc32)cc1OCc1cncc(C#N)c1)C(N)=O [Example 2.168] | 100 to 500 | –
CC(C)OC(=O)[C@@H](NCc1cc(Cl)c(O[C@H]2CCc3c(-c4ccccc4F)cccc32)cc1OCc1cncc(C#N)c1)[C@@H](C)O [Example 2.169] | 500 to 20000 | –
N#Cc1cncc(COc2cc(O[C@H]3CCc4c(-c5ccccc5F)cccc43)c(Cl)cc2CNC(C(N)=O)C(N)=O)c1 [Example 2.170] | 500 to 20000 | –
N#Cc1cncc(COc2cc(O[C@H]3CCc4c(-c5ccccc5F)cccc43)c(Cl)cc2CNCC(N)=O)c1 [Example 2.171] | 100 to 500 | –
CC(C)OC(=O)[C@H](CO)NCc1cc(Cl)c(O[C@H]2CCc3c(-c4ccccc4F)cccc32)cc1OCc1cncc(C#N)c1 [Example 2.172] | 500 to 20000 | –
N#Cc1cncc(COc2cc(O[C@H]3CCc4c(-c5ccccc5F)cccc43)c(Cl)cc2CNC(=O)CCCC(=O)O)c1 [Example 2.173] | 500 to 20000 | –
N#Cc1cncc(COc2cc(O[C@H]3CCc4c(-c5ccccc5F)cccc43)c(Cl)cc2CN[C@@H]2[C@@H]3CC[C@@H](C3)[C@@H]2C(=O)O)c1 [Example 2.174] | 500 to 20000 | –
N#Cc1cncc(COc2cc(O[C@H]3CCc4c(-c5ccccc5F)cccc43)c(Cl)cc2CN[C@@H](C(=O)O)c2ccc(O)cc2)c1 [Example 2.175] | 100 to 500 | –
N#Cc1cncc(COc2cc(O[C@H]3CCc4c(-c5ccccc5F)cccc43)c(Cl)cc2CN[C@@H](C(=O)O)c2ccccc2)c1 [Example 2.176] | < 100 | –
CCOc1cc(O[C@H]2CCc3c(-c4ccccc4F)cccc32)c(Cl)cc1CNC(C)(CO)C(=O)O (stereo partly drawn) [Example 2.177] | 100 to 500 | –
N#Cc1cncc(COc2cc(O[C@H]3CCc4c(-c5ccccc5F)cccc43)c(Cl)cc2CN[C@H](C(=O)O)c2ccccc2)c1 [Example 2.178] | 100 to 500 | –
N#Cc1cc(COc2cc(O[C@H]3CCc4c(-c5cccc(O)c5F)cccc43)c(Cl)cc2CN[C@@H](CO)C(=O)O)cc(NC=O)c1 [Example 3.020] | – | < 100
